Key:
NBD1 ATPase activity = NBD1 ATPase activity (malachite green kit); assay type: biochemical, human
Description: The measurement of NBD1 ATPase activity was performed with a malachite green based kit supplied by Sigma (cod. MAK113) in accordance with the manufacturer's instructions. The enzyme activity was measured at 620 nm at room temperature using a Multiskan 96 well plates reader.

TG2 / NBD1 = test: Cell-free system with recombinant TG2, NBD1 and synthetic peptide (native PAGE); assay type: biochemical; settings: Ca2+-activated TG2
Description: FIG. 5: a, Immunoprecipitation of TG2 protein 15 in Caco-2 cells challenged with P57-68, PGAV or P31-43 and blotted with HRP-streptavidin. b, Immunoprecipitation of CFTR protein in Caco-2 cells challenged with P31-43 in the presence of absence of the TG2 inhibitor ZDON or TG2 RNA silencing and 20 blotted with anti-isopeptide glutamime-lysine and anti-TG2 antibodies. c, Recombinant TG2 and/or NBD1 incubated in vitro with P31-43 and solved in native page in the presence or absence of Ca2+. d, Immunoprecipitation of CFTR protein and immunblot with anti-CFTR antibodies or anti-TG2 antibodies. e, Immunoprecipitation of CFTR protein and immunoblot with anti-TG2 or anti-CFTR antibodies; effects of ZDON and BAPTA-AM. f, In situ detection of TG2 activity in Caco-2 cells pulsed with Ca2+ in the presence or absence of VX-770 or Z-DON. Activity assay by immunoblotting of the TG-catalyzed incorporation of 5-biotinamidopentylamine (BAP) and blotting with anti-biotin antibody. g, In situ TG2 activity assay, by immunostaining of the TG-catalysed incorporation of monodansylcadaverin, on Caco-2 cells pre-incubated with VX-770 or Z-DON and then pulsed with P31-43. Scale bar 50 μm. h, Immunoprecipitation of PKAr2a protein and immunoblot with isopeptide glutamime-lysine antibody in Caco-2 cells challenged with P57-68 or P31-43 in the absence or presence of VX-770. (i,j). […]

[1] = system: gliadin-sensitive BALB/c mice; test: Gliadin-sensitive BALB/c mice, 4-week oral gliadin challenge; assay type: in vivo, mouse
Description: In the first model, BALB/c mice are fed for at least three generations with a gluten-free diet, followed by a 4-week gliadin challenge, as described (Papista, C., et al. 2012). Ten week-old BALB/c mice were orally challenged for 4 weeks with gliadin or vehicle in the presence or absence of 2 mM VX-770 administered intraperitoneally 15 min prior to gliadin challenge (n=10 per treatment group). […] Moreover, VX-770 opposed the ability of gliadin to increase TG2 protein levels (FIG. 9c) and ERK 1/2 phosphorylation (FIG. 9d).
BALB/c mice (background BALB/cAnNCrl) were purchased from Charles River (Varese, Italy). Three generation gluten-free diet (Mucedola srl, Milan), male and female, were challenged with gliadin for 4 weeks. To assess the effects of VX-770 into a controlled environment, mice were challenged via gavage for 4 weeks with i) vehicle alone or ii) gliadin (SigmaAldich, G3375) (5 mg/daily for one week and then 5 mg/daily thrice a week for 3 weeks)(Moon, S. H., et al. 2016) in the presence or absence of intraperitoneal VX770 (0.075 mg/mice in 100 μl DMSO, 2 mM, SelleckchemS1144) or genistein (25 mg\kg in 100μ1 DMSO, SigmaAldrich), administered 15 minutes prior gliadin challenge (n=10 mice per group of treatment).
At the end of the last daily treatment, mice were anesthetized with Avertine (tribromoethanol, 250 mg/kg, Sigma Aldrich, T48402) and then killed; the intestines were collected for CFTR function analysis or stored for all described techniques.
Chambers for mounting either transwell cell cultures or mouse tissue biopsies were obtained from Physiologic Instruments (model P2300, San Diego, Calif., USA). Chamber solution was buffered by bubbling with identical Ringer solution on both sides and were maintained at 37° C., vigorously stirred, and gassed with 95% O2/[…]. Cells or tissues were short circuited using Ag/AgCl agar electrodes. A basolateral-to-apical chloride gradient was established by replacing NaCl with Na-gluconate in the apical (luminal) compartment to create a driving force for CFTR-dependent Cl secretion. To measure stimulated Isc, the changed sodium gluconate solution was supplied with 100 μM amiloride. Agonists (forskolin) were added to the bathing solutions as indicated (for a minimum 5 min of observation under each condition) to activate CFTR channels present at the apical surface of the epithelium (either cell surface or lumen side of the tissue) and CFTRInh-172 (10 μM) was added to the mucosal bathing solution to block CFTR-dependent Isc. Shortcircuit current (expressed as Isc (μA/cm2)) and resistance were acquired or calculated using the VCC600 transepithelial clamp from Physiologic Instruments and the Acquire & Analyze 2.3 software for data acquisition (Physiologic Instruments), as previously described Tosco A, et al. 2016; Romani, L. et al. 2017).
The whole lysate or membrane fraction proteins of cell lines and mice intestine homogenates were obtained from treated and untreated cells or mice as described. The equal amount of protein were resolved by SDS-PAGE gel and blotted with antibodies against: SQSTM1, (Sigma Aldrich, 108k4767) 1:1000, PPARγ (Santa Cruz Biotechnology, sc7273) 1:500, BECN1 (Abcam, ab58878) 1:1000, CFTR clone M3A7 (Abcam, ab4067) 1:500, phospho-ERK1/2 (php42/44, Cell Signaling Technology, #91101) 1:1000, UVRAG (Santa Cruz Biotechnology sc8215) 1:1000, NHERF-1 (BD, 611161) 1:1000, EZRIN (BD, 610603) 1:1000, hVps34 (SigmaV9764) 1:300, biotin (Abcam, ab1227) 1:2000, PKAr2a (BD, 610625) 1:500, Ubiquitin (Cell Signaling clone P4D1, #3936) 1:1000, CHIP (Calbiochem PC711) 1:500, Caspase-1 p10 (M-20) (Santa Cruz Biotechnology, sc-514) 1:200, NLRP3 (Abcam, ab4207), 1:500, IDO1 (monoclonal; cv152) 1:1000^[80], used as primary antibodies. Normalization was performed by probing the membrane with anti-β-actin (Cell Signaling, #4970) 1:1000, anti-Gapdh (Sigma-Aldrich, G8795) 1:1000 and anti-flottilin (Abcam ab15148) 1:1000 antibodies. […]

[2] = BALB/c mice small intestine homogenates

Compound | IC50 (NBD1 ATPase activity) [µM] | TG2-catalyzed covalent interaction with NBD1 (TG2 / NBD1) | effect on gliadin induced expression of IL-21 ([1]; BALB/c mice) | effect on gliadin-induced NLRP3 expression ([1]; BALB/c mice small intestine) | effect on gliadin-induced caspase 1 cleavage ([1]; BALB/c mice small intestine) | effect on increased NKG2D expression by intraepithelial lymphocytes ([1]; BALB/c mice small intestine) | Th1 transcription factor Tbet transcript [1, 2] | Th17 transcription factor Rorc transcript [1, 2] | effect on gliadin-induced decrease of CFTR function in small intestines ([1]; BALB/c mice, 2 mM VX-770 i.p. 15 min prior to gliadin) | effect on gliadin-induced ERK 1/2 phosphorylation ([1]; BALB/c mice, VX-770 i.p.) | effect on gliadin-induced increase of TG2 protein levels ([1]; BALB/c mice, VX-770 i.p.) | effect on gliadin-induced increase of IFN-γ mRNA and protein ([1]; BALB/c mice, p<0.001) | effect on gliadin-induced increase of IL-15 mRNA and protein ([1]; BALB/c mice, p<0.001) | effect on gliadin-induced increase of IL-17A mRNA and protein ([1]; BALB/c mice, p<0.001) | IL-10 production ([1]; gliadin-sensitive mice, ELISA) | TGF-β production ([1]; gliadin-sensitive mice, ELISA)
α-gliadin peptide LGQQQPFPPQQPY (SEQ ID 1), induces an enterocyte stress response (P31-43 sequence of alpha-gliadin) | ~50 | Ca2+-activated TG2 catalyzed covalent interactions between P31-43 and NBD1 |  |  |  |  |  |  |  |  |  |  |  |  |  | 
CC(C)(C)c1cc(C(C)(C)C)c(NC(=O)c2c[nH]c3ccccc3c2=O)cc1O [VX-770, N-(2,4-di-tert-butyl-5-hydroxyphenyl)-4-oxo-1,4-dihydroquinoline-3-carboxamide] |  |  | inhibited | counteracted | counteracted | counteracted | downregulated | downregulated | inhibitable | opposed | opposed | prevented | prevented | prevented | restored | restored
